From US20130172847A1, “Compositions for Providing Vitamin D Year Round and Uses Thereof” (priority 2002, published 2013)

Legend:
[1] = cited from earlier work
[2] = Conversion of 7-DHC and/or T3 to PreD3 in cream under winter natural sunlight; assay type: physicochemical; details: Cream (1 g); natural sunlight 5-60 min; start 7-DHC 1.0 μg, T3 0 μg
Text: (§1) In contrast, compositions comprising increasing amounts of T3 produce increasing amounts of PreD3 when exposed to winter sunlight.
(§2) Conversion of 7-Dehydrocholesterol (7-DHC) and/or Tachysterol (T3) to Previtamin D3 (PreD3)

[3] = Conversion of 7-DHC and/or T3 to PreD3 in ethanol under winter natural sunlight; assay type: physicochemical
Text: as §1, §2

[4] = Conversion of 7-DHC and/or T3 to PreD3 in cream under artificial UVB light (simulates summer sunlight); assay type: physicochemical; details: for % Yield / PreD3 Formed: Cream (1 g), artificial UVB 2 min
Text: as §1, §2

[5] = human skin or organic solvent exposed to 295 nm radiation; cited from earlier work
[6] = Ethanol (1 ml), natural sunlight 90 min, start 7-DHC 0 μg, T3 10 μg

Row | % Yield [3, 6] | PreD3 Formed [3, 6] | % Yield ([4]; start 7-DHC 0 μg, T3 1 μg) | PreD3 Formed ([4]; start 7-DHC 0 μg, T3 1 μg) | SMILES | portion of tachysterol among photoproducts ([1]; exposed to light in the range of 254 nm) | previtamin D3 produced ([1]; irradiated at 0° C. with 254 nm light, thereafter (0° C.) with 350 nm light) | % Yield [2] | % Yield ([3]; Ethanol (1 ml), natural sunlight 90 min, start 7-DHC 10 μg, T3 0 μg) | conversion to PreD3 when exposed to winter sunlight (in words) ([3]; winter natural sunlight, summary of the table) | % Yield ([4]; start 7-DHC 1.0 μg, T3 0 μg) | PreD3 Formed ([4]; start 7-DHC 1.0 μg, T3 0 μg) | conversion to PreD3 when exposed to artificial UVB light (in words) [4] | provitamin D3 converted to previtamin D3 [5]
1 | – | – | – | – | CC(C)CCC[C@@H](C)[C@H]1CC[C@H]2C3=CC=C4C[C@@H](O)CC[C@]4(C)[C@H]3CC[C@]12C [7-DHC, 7-Dehydrocholesterol] | about 75% | ≤ 83% | 0% | 0% | inefficiently converted to PreD3 | 26% | 0.26 µg | converted to PreD3 | up to 65%
2 | 77% | 7.1 µg | 52% | 0.52 µg | CC1=C(/C=C\C2=CCC[C@]3(C)[C@@H]([C@H](C)CCCC(C)C)CC[C@@H]23)C[C@@H](O)CC1 [T3, Tachysterol] | – | – | – | – | – | – | – | converted to PreD3 | –
